Here are results for 5 compounds from patent publication US20110045139A1, “FERMENTED SAUSAGE AND METHODS OF MAKING SAME” (priority 2009, published 2011).

In assay [1] the test system is E. coli O157:H7 (5-strain cocktail). The assay is described as follows: microbe, parasite or virus in culture. In kind it is cell-based, Escherichia coli O157:H7. Conditions: for MBC / Growth inhibition (p < 0.05): pH 5.5.
For the next assay, the system named is Staphylococcus carnosus. The assay is described as follows: microbe, parasite or virus in culture. In kind it is cell-based. The note with it: pH 5.5.
For a further assay, the system named is Pediococcus pentosaceus. The assay is described as follows: microbe, parasite or virus in culture. In kind it is cell-based. The note with it: pH 5.5.
Assay [2] concerns E. coli O157:H7. The note with it: pH 4.9; cited from earlier work.
The subject of assay [3] is E. coli O157:H7. The assay is described as follows: In vitro formation of isothiocyanates by myrosinase, viable counts. The assay is classed as cell-based, Escherichia coli O157:H7. The note with it: glucosinolate 2.5 mM plus myrosinase 0.2 U/tube, MHB with sausage ingredients.
The subject of assay [4] is E. coli O157:H7. The assay is described as follows: Minimum inhibitory concentration at dry-cured sausage pH. In kind it is cell-based, Escherichia coli O157:H7. Conditions: pH 5.5.
The test system of assay [5] is Escherichia coli, Staphylococcus aureus, Campylobacter jejuni, Pseudomonas aeruginosa, Salmonella Enteritidis, Listeria monocytogenes, Shigella boydii and …. The note with it: cited from earlier work.

In brackets after ≈: the same amount, converted by molar mass. Read-outs that look alike come from different tables or passages of the source.

Regarding `C=CCN=C=S` [AIT, allyl isothiocyanate], the MBC in assay [1] (Escherichia coli, 18 h) worked out at 1040 µM (≈ 103 µg/mL); in the assay on Staphylococcus carnosus (Staphylococcus carnosus, 18 h), 1040 µM (≈ 103 µg/mL); against Pediococcus pentosaceus (Pediococcus pentosaceus, 18 h), 20800 µM (≈ 2060 µg/mL). Further, the “Growth inhibition (p < 0.05)” value in assay [1] stood at 0.26 mM; in the assay with Staphylococcus carnosus, 0.26 mM; with Pediococcus pentosaceus, 10.40 mM. In addition, the minimum inhibitory concentration with E. coli O157:H7 [2] was about 250 µM (≈ 24.8 µg/mL).
`C=CCC(=NOS(=O)(=O)O)S[C@@H]1O[C@H](CO)[C@@H](O)[C@H](O)[C@H]1O` (stereo in doubt) [sinigrin]: in the assay with E. coli O157:H7 [3], the “time after which E. coli was not detectable” value is given as 2 days.
Still for that read-out and setting: the result for `O=S(=O)(O)O/N=C(/Cc1ccc(O)cc1)S[C@@H]1O[C@H](CO)[C@@H](O)[C@H](O)[C@H]1O` [sinalbin] reads 3 days.
Turning to `OCc1ccc(O)cc1` [ρ-HBA, ρ-hydroxybenzyl alcohol], in assay [1], the “inhibitory activity against E. coli O157:H7” value is “very weak” and the “Growth inhibition (p < 0.05)” value is given as 20.14 mM.
The compound `Oc1ccc(CN=C=S)cc1` [ρ-HBIT, ρ-hydroxybenzyl isothiocyanate] yielded a minimum inhibitory concentration with E. coli O157:H7 [4] of about 600 µM (≈ 99.1 µg/mL). Besides, the “Growth inhibition (p < 0.05)” value in assay [1] worked out at 0.59 mM; in the assay on Staphylococcus carnosus it was 0.3 mM; in the assay with Pediococcus pentosaceus, 1.48 mM. Also, the MBC in assay [1] is 1480 µM (≈ 245 µg/mL); with Staphylococcus carnosus it was 590 µM (≈ 97.5 µg/mL); against Pediococcus pentosaceus, 5920 µM (≈ 978 µg/mL). In assay [5], the bactericidal concentration was 0.35 to 2.13 mM.
